Among the data in patent US7420001B2 (Wyeth, priority 2003, dated 2008) are IC50 values, retold here.

Where two headings read alike, the source gives them in different places.

By IC50 is commonly meant the concentration that gives 50% inhibition.

One assay has as its target T1, MMP-13 (Homo sapiens, UniProt P45452).
T1 construct: made in house
Briefly: In-vitro fluorescence assay of MMP-13 activity. Format: biochemical.

Another assay has as its target T2, MMP-2 (Homo sapiens, UniProt P08253).
T2 construct: purchased Oncogene Research Products (Calbiochem) PF023
T2 sequence (P08253 110-660): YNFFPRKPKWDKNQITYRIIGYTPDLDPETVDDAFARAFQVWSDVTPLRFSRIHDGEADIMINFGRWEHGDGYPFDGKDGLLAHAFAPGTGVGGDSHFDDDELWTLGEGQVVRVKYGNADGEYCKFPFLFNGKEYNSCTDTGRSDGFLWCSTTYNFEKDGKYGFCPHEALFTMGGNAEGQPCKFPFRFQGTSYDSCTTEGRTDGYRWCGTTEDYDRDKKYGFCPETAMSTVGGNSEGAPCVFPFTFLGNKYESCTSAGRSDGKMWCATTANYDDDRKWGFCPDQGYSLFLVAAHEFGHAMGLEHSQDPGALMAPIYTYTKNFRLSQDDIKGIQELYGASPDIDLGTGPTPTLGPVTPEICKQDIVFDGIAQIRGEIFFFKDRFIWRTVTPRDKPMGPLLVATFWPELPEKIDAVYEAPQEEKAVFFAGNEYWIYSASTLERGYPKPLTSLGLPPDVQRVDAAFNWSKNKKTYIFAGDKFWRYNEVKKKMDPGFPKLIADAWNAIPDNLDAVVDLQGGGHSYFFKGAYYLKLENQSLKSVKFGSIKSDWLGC
Briefly: In-vitro fluorescence assay of MMP-2 activity. In kind it is biochemical. The conditions noted are these: recombinant human MMP-2; read-out: MMP-2 IC50.

For another assay, the target named is T3, MMP-14 (Homo sapiens, UniProt P50281).
T3 construct: 20 kDa; purchased Chemicon International, Inc. CC 1041
In words: In-vitro fluorescence assay of MMP-14 activity. In kind it is biochemical.

The target of a further assay is T4, MMP-1 (Homo sapiens, UniProt P03956).
T4 sequence (P03956 100-269 limits assumed): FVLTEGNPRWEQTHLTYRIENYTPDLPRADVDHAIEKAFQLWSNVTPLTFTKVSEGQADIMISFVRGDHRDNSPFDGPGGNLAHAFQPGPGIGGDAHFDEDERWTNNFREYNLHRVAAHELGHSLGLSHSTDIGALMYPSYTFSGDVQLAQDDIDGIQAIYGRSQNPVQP

[1] abbreviates: recombinant human catalytic domain of MMP-13, read-out: MMP-13 IC50.
The mark [2] stands for this setting: recombinant human catalytic domain of MMP-14.

Experimental for MMP-14: A continuous assay was used in which the substrate is a synthetic peptide containing a fluorescent group (7-methoxycoumarin; Mca) which is quenched by energy transfer to a 2,4-dinitrophenyl group. […] The substrate used was Mca-PQGL-(3-[2,4-dinitrophenyl]-L-2,3-diaminopropionyl)-AR-OH (denoted as Wammp-5, custom synthesized by AnaSpec, Inc.). The assay buffer consisted of 50 mM Hepes (pH 7.4), 100 mM NaCl, 5 mM CaCl2, and 0.005% Brij-35. […] The enzymatic reactions were initiated by adding the substrate to a final concentration of 20 μM, and mixing 10 times with a pipette. The final DMSO concentration in the assay was 6.0%.
(§1) Plots of the inhibitor concentration vs. the percent inhibition were fit to the following equation: y=(a−d)/[1+(x/c)^b]+d, a general sigmoidal curve with Hill slope, a to d. x is the inhibitor concentration under test. y is the percent inhibition. a is the limiting response as x approaches zero. As x increases without bound, y tends toward its limit d. c is the inflection point (IC50) for the curve. That is, y is halfway between the lower and upper asymptotes when x=c. b is the slope factor or Hill coefficient.
Text for MMP-2: A continuous assay was used in which the substrate is a synthetic peptide containing a fluorescent group (7-methoxycoumarin; Mca) which is quenched by energy transfer to a 2,4-dinitrophenyl group. […] The source of enzyme in the assay was the recombinant human MMP-2 (66 kDa) purchased from Oncogene Research Products (catalog number PF023 from Calbiochem). The substrate used was Mca-PQGL-(3-[2,4-dinitrophenyl]-L-2,3-diaminopropionyl)-AR-OH (denoted as Wammp-5, custom synthesized by AnaSpec, Inc.). The assay buffer consisted of 50 mM Hepes (pH 7.4), 100 mM NaCl, 5 mM CaCl2, and 0.005% Brij-35. […] The enzymatic reactions were initiated by adding the substrate to a final concentration of 20 μM, and mixing 10 times with a pipette. The final DMSO concentration in the assay was 6.0%.
as §1

With `O=C(O)CNS(=O)(=O)c1ccc(-c2ccc(NC(=O)c3cc4ccccc4o3)cc2)cc1` [Example 1, N-({4′-[(1-benzofuran-2-ylcarbonyl)amino]-1,1′-biphenyl-4-yl}sulfonyl)glycine], the IC50 on MMP-13 (setting [1]) was determined as 35 nM; on MMP-2 it was 47 nM; on MMP-14 (setting [2]), 13900 nM.

`CC(C)[C@H](NS(=O)(=O)c1ccc(-c2ccc(NC(=O)c3cc4ccccc4[nH]3)cc2)cc1)C(=O)O` [Example 3]: on MMP-14 (setting [2]), the IC50 was 5600 nM.

As to `Cc1c(C(=O)Nc2ccc(-c3ccc(S(=O)(=O)N[C@@H](C(=O)O)C(C)C)cc3)cc2)oc2ccccc12` [Example 74, D-3-Methyl-2-{4′-[(3-methyl-benzofuran-2-carbonyl)-amino]-biphenyl-4-sulfonylamino}-butyric acid], the IC50 came to 13 nM at MMP-13 (setting [1]), 28300 nM against MMP-1, 93 nM at MMP-2 and 29 nM at MMP-14 (setting [2]).

On to `CC(C)[C@H](C(=O)O)N(C)S(=O)(=O)c1ccc(-c2ccc(NC(=O)c3cc4ccccc4o3)cc2)cc1` [Example 77, N-({4′-[(1-benzofuran-2-ylcarbonyl)amino]-1,1′-biphenyl-4-yl}sulfonyl)-N-methyl-D-valine], for which the concentration for half-maximal inhibition (IC50) was determined as 5.7 nM on MMP-13 (setting [1]), 15000 nM against MMP-1, 6 nM at MMP-2 and 7110 nM on MMP-14 (setting [2]).

On to `CN(CC(=O)O)S(=O)(=O)c1ccc(-c2ccc(NC(=O)c3cc4ccccc4o3)cc2)cc1` [Example 79, N-({4′-[(1-Benzofuran-2-ylcarbonyl)amino]-1,1′-biphenyl-4-yl}sulfonyl)-N-methylglycine], for which the IC50 at MMP-13 (setting [1]) was determined as 40 nM; at MMP-1, 500000 nM; on MMP-2 it was 35 nM; at MMP-14 (setting [2]), 24000 nM.

Consider `CC(C)[C@@H](C(=O)O)N(CCN1CCOCC1)S(=O)(=O)c1ccc(-c2ccc(NC(=O)c3cc4ccccc4o3)cc2)cc1` [Example 82, N-({4′-[(1-Benzofuran-2-ylcarbonyl)amino]-1,1′-biphenyl-4-yl}sulfonyl)-N-(2-morpholin-4-ylethyl)-L-valine], for which the IC50 on MMP-13 (setting [1]) is 18 nM; on MMP-1, greater than 10000 nM; on MMP-2, 30 nM; at MMP-14 (setting [2]), greater than 60000 nM.

Regarding `Cc1c(C(=O)Nc2ccc(-c3ccc(S(=O)(=O)N[C@H](C(=O)O)C(C)C)cc3)cc2)oc2ccccc12` [Example 83, N-[(4′-{[(3-Methyl-1-benzofuran-2-yl)carbonyl]amino}-1,1′-biphenyl-4-yl)sulfonyl]-L-valine], the IC50 at MMP-13 (setting [1]) was found to be 5.9 nM; on MMP-1, 24300 nM; at MMP-2 it was 259 nM; at MMP-14 (setting [2]), 12400 nM.

Consider `Cc1c(C(=O)Nc2ccc(-c3ccc(S(=O)(=O)N[C@H](C(=O)O)C(C)C)cc3)cc2)oc2cccc(-c3ccccc3)c12` [Example 109, (S)-3-Methyl-2-{4′-[(3-methyl-4-phenyl-benzofuran-2-carbonyl)-amino]-biphenyl-4-sulfonylamino}-butyric acid], for which the IC50 at MMP-13 (MMP-13 IC50, recombinant human catalytic domain of MMP-13) came to 15 nM; against MMP-1 it was 11000 nM; at MMP-2 it was 3650 nM; at MMP-14 (setting [2]), 7000 nM.

Turning to `Cc1c(C(=O)Nc2ccc(-c3ccc(S(=O)(=O)N[C@H](C(=O)O)C(C)C)cc3)cc2)oc2cccc(-c3cccc([N+](=O)[O-])c3)c12` [Example 110, (S)-3-Methyl-2-(4′-{[3-methyl-4-(3-nitro-phenyl)-benzofuran-2-carbonyl]-amino}-biphenyl-4-sulfonylamino)-butyric acid], the IC50 at MMP-13 (setting [1]) is 17 nM; on MMP-1 it was 49600 nM; on MMP-2, 2400 nM; on MMP-14 (setting [2]), 20000 nM.

For the molecule `COc1c(Br)ccc2oc(C(=O)Nc3ccc(-c4ccc(S(=O)(=O)N[C@H](C(=O)O)C(C)C)cc4)cc3)c(C)c12` [Example 118, (S)-2-{4′-[(5-bromo-4-methoxy-3-methyl-benzofuran-2-carbonyl)-amino]-biphenyl-4-sulfonylamino}-3-methyl-butyric acid], the IC50 amounted to 2.3 nM at MMP-13 (setting [1]); 30000 nM on MMP-1 (read-out: MMP-1 IC50, recombinant human catalytic domain of MMP-1); 1700 nM at MMP-2; 14600 nM against MMP-14.

In the case of `CC(C)[C@@H](NS(=O)(=O)c1ccc(-c2ccc(OC(=O)c3cc4ccccc4o3)cc2)cc1)C(=O)O` [Example 135, Benzofuran-2-carboxylic acid 4′-(1-carboxy-2-methyl-propylsulfamoyl)-biphenyl-4-yl ester], the IC50 stood at 0.5 nM at MMP-13 (setting [1]), 20000 nM at MMP-1, 0.7 nM at MMP-2 and 2000 nM on MMP-14 (setting [2]).

As to `Cc1c(COc2ccc(-c3ccc(S(=O)(=O)N[C@@H](C(=O)O)C(C)C)cc3)cc2)oc2ccccc12` [Example 139, D-3-Methyl-2-[4′-(3-methyl-benzofuran-2-ylmethoxy)-biphenyl-4-sulfonylamino]-butyric acid], the IC50 at MMP-13 (setting [1]) was 4.4 nM; on MMP-2, 28 nM; at MMP-14 (setting [2]), 3500 nM.

Regarding `CC(C)[C@@H](NS(=O)(=O)c1ccc(-c2ccc(OCc3cc4ccccc4o3)cc2)cc1)C(=O)O` [Example 141, D-2-[4′-(Benzofuran-2-ylmethoxy)-biphenyl-4-sulfonylamino]-3-methyl-butyric acid], the results for the IC50 on MMP-13 (setting [1]), at MMP-2 and on MMP-14 (setting [2]) were 1.1 nM, 2.5 nM and 500 nM, respectively.

Take `CC(C)[C@H](NS(=O)(=O)c1ccc(-c2ccc(NC(=O)c3cc4c(ccc5ccccc54)o3)cc2)cc1)C(=O)O` [Example 153, L-3-Methyl-2-{4′-[(naphtho[2,1-b]furan-2-carbonyl)-amino]-biphenyl-4-sulfonylamino}-butyric acid]: the IC50 came to 0.5 nM at MMP-13 (setting [1]), 40000 nM on MMP-1, 14 nM on MMP-2 and 17000 nM on MMP-14 (setting [2]).

`Cc1cc(C(=O)Nc2ccc(-c3ccc(S(=O)(=O)N[C@H](C(=O)O)C(C)C)cc3)cc2)nn1-c1ccccc1` [Example 168, (S)-3-Methyl-2-{4′-[(5-methyl-1-phenyl-1H-pyrazole-3-carbonyl)-amino]-biphenyl-4-sulfonylamino}-butyric acid]: the IC50 turned out to be 99 nM at MMP-13 (setting [1]), 60000 nM against MMP-1, 1290 nM at MMP-2 and 36000 nM on MMP-14 (setting [2]).

In the case of `CC(C)[C@H](NS(=O)(=O)c1ccc(-c2ccc(NC(=O)c3csc(-c4ccncc4)n3)cc2)cc1)C(=O)O` [Example 169, (S)-3-Methyl-2-{4′-[(2-pyridin-4-yl-thiazole-4-carbonyl)-amino]-biphenyl-4-sulfonylamino}-butyric acid], the IC50 at MMP-13 (setting [1]) stood at 75 nM; against MMP-1, 40400 nM; at MMP-2, 1190 nM; on MMP-14 (setting [2]), 40000 nM.

On to `CC(C)[C@H](NS(=O)(=O)c1ccc(-c2ccc(NC(=O)c3cccs3)cc2)cc1)C(=O)O` [Example 174, (S)-3-Methyl-2-{4′-[(thiophene-2-carbonyl)-amino]-biphenyl-4-sulfonylamino}-butyric acid], for which the IC50 on MMP-13 (setting [1]) was found to be 25 nM; against MMP-1, 7400 nM; at MMP-2, 61 nM; on MMP-14 (setting [2]), 6130 nM.

`Cc1c(C(=O)Nc2ccc(-c3ccc(S(=O)(=O)N[C@H](C(=O)O)C(C)C)cc3)cc2)oc2cccc(OCc3ccncc3)c12` [Example 179, (S)-3-Methyl-2-(4′-{[3-methyl-4-(pyridin-4-ylmethoxy)-benzofuran-2-carbonyl]-amino}-biphenyl-4-sulfonylamino)-butyric acid]: the IC50 on MMP-13 (setting [1]) amounted to 7.1 nM; on MMP-2, 4000 nM.
